Entries after “also recorded” stand apart in the source; their conditions may differ.
Columns and labels:
[1] = target: recombinant human EPHA2 (Homo sapiens (Human), UniProt P29317); experiment: Z′-LYTE FRET-based in vitro biochemical kinase assay; details: recombinant human EPHA2 expressed in insect cells; read-out: Human EPHA2 IC50 (nM) ± SD
Protocol: Several analogs were synthesized based on the structure of TL5-135 for further study. […] For the data in Table 1, compounds were subjected to in vitro biochemical kinase assays done using recombinant human ephrin type-A receptor 2 (EPHA2) (expressed in insect cells) in a Z′-LYTE® FRET-based kinase assay. P. falciparum Dd2 EC50 was determined using the standard 72 hour SYBR Green I assay (Dd2 Proliferation Assay) as known in the art. […] The structures of compoundsTL5-134, TL5-139, and TL5-145 are shown below.
In vitro biochemical kinase assays were done using recombinant human EPHA2 (expressed in insect cells) in a Z′-LYTE® FRET-based kinase assay. P. falciparum Dd2 EC50 was determined using the standard 72 h SYBR Green I assay.

[2] = test system: P. berghei luciferase expressing parasites; experiment: Liver stage assay with luciferase expressing parasites; type: cell-based; details: Plasmodium berghei, read-out: Liver Stage EC50 (nM) ± SD
Protocol: P. falciparum Dd2 EC50 was determined using SYBR Green I assay. For the selectivity index ([…]) cytotoxicity was determined using CellTiter 96® AQueous MTS. The liver stage assay was performed using P. berghei luciferase expressing parasites. All assays were performed with technical quadruplicates and 3 biological replicates. Assays have a Z′ factor >0.7.

[3] = test system: P. berghei ANKA; experiment: Treatment of established P. berghei ANKA luciferase infection in mice, IVIS imaging; type: in vivo; details: 50 mg/kg p.o. once daily for 4 days from 72 hours post-infection; imaging day 7
Protocol: Mice infected with P. berghei ANKA (10^3 iRBC) expressing luciferase were treated with 50 mg/kg TL5-135 or chloroquine orally once daily 72 hours post-infection for 4 days. Imaging was done 7 days after infection following a 150 mg/kg D-luciferin injection with an IVIS.

[4] = test system: P. berghei luc sporozoites (Pb-Luc); experiment: Prophylaxis assay, single IV dose 6 hours before Pb-Luc sporozoite infection; type: in vivo, mice
Protocol: (§1) TL5-135 was dissolved or resuspended in a suspending vehicle consisting of 30% DMSO, 1% methylcellulose, 0.5% TWEEN-80, and 68.5% ultrapure water. GNF179 was resuspended in 30% DMSO, 30% PEG400, 5% TWEEN-80, 35% saline, and administered intravenously.
(§2) For prophylaxis assays, a single dose of […] was administrated 6 hours before infection. For therapeutic assays, in a 4-day's Peters test, 4 doses (each 15 mg/kg) were administrated 6, 18, 30, and 42 hours post infection.
(§3) The antimalarial activity was measured as a percent reduction in parasitemia from day one until day twelve post-infection.
Infection was initiated using 100,000 P. berghei luc sporozoites (Pb-Luc). The drugs were administered IV at 50 mg/kg, single dose 6 hours prior. I: infected, UI: uninfected.
(§4) Groups of 5 mice were infected with 100,000 Pb-Luc sporozoites by IV injection. Prophylactic (single dose of 50 mg/kg through IV injection, 6 hour before infection) and therapeutic (4-day Peters test, 4 doses of 15 mg/kg each time were administrated post-infection at 6, 18, 30, and 42 hours post infection (hpi) and the activity of the compounds was evaluated. See FIG. 8A. The parasitemia was estimated after flow cytometric enumeration of rodent malaria parasite Pb-Luc-infected red blood cells (RBS) stained with SYBR Green I, from day 3 until 20.
(§5) TL5-135 and GNF179 antimalarial compounds were tested against Pb-Luc sporozoites. Prophylactic activity (single dose of 15 mg/kg through an IV injection, 6 hours before infection) and therapeutic activity (4-day Peters test, 4 doses of 15 mg/kg each time was administrated at 6, 18, 30, and 42 hpi of the TL5-135 antimalarial compound was evaluated. As before, groups of five mice were infected with 100,000 Pb-Luc sporozoites by IV injection. The parasitemia was estimated after flow cytometric enumeration of rodent malaria parasite Pb-Luc-infected red blood cells (RBS) stained with SYBR Green I, from day 3 until day 20. See FIG. 8B.

[5] = test system: Pb-Luc sporozoites; experiment: Therapeutic assay, 4-day Peters test against Pb-Luc sporozoites; type: in vivo, mice; details: therapeutic, 4 doses of 15 mg/kg
Protocol: as §1, §2, §3
However, the mice treated with TL5-135 as a therapeutic had about 2.4% parasitemia after 12 days post-infection (all negative control mice died between days 11-13). The parasitemia on day 21 (21 days post-infection) for the group of mice was 35%.
as §4, §5

[6] = test system: P. falciparum strain Dd2; experiment: Stage specificity assay; type: cell-based; details: for Stage specific action, treated at early ring stage: 400 nM (5×EC50) at 6 hours post infection for 12 hours
Protocol: Asexual stage P. falciparum cultures were synchronized by MACS magnetic column, followed 3 hours later by treatment with 5% sorbitol to select for rings. Six hours after invasion, parasites were plated onto a 96-well plate at 1% parasitemia and 1% hematocrit, maintained at 37° C. in 5% CO2, and compound was added at 5×EC50 to the 6 HPI wells. Every 12 hours, until reinvaded rings (54 HPI), thin blood smear slides for Giemsa-stain were taken, and samples were washed and fixed in 4% paraformaldehyde in PBS with 0.04% glutaraldehyde. At the conclusion of the timepoints, all samples were permeabilized with 0.25% Triton X-100 before being treated with 50 μg/mL RNase A and stained with 500 nM YOYO-1. Samples were then washed, and flow cytometric analysis was performed with a CytoFLEX S™, collecting 100,000 events per sample. Analysis was performed with FlowJo™ software Version 10.
The stage specific action of the prioritized hits was determined as follows. Synchronized cultures of P. falciparum strain Dd2 were exposed to 400 nM (5×EC50) compound at 6 hours post infection for 12 hours and fixed samples labeled with YOYO-1 dye were analyzed by flow cytometry and microscopy using Giemsa-stained thin smears.

Chain of recombinant human EPHA2 (P29317 24-976): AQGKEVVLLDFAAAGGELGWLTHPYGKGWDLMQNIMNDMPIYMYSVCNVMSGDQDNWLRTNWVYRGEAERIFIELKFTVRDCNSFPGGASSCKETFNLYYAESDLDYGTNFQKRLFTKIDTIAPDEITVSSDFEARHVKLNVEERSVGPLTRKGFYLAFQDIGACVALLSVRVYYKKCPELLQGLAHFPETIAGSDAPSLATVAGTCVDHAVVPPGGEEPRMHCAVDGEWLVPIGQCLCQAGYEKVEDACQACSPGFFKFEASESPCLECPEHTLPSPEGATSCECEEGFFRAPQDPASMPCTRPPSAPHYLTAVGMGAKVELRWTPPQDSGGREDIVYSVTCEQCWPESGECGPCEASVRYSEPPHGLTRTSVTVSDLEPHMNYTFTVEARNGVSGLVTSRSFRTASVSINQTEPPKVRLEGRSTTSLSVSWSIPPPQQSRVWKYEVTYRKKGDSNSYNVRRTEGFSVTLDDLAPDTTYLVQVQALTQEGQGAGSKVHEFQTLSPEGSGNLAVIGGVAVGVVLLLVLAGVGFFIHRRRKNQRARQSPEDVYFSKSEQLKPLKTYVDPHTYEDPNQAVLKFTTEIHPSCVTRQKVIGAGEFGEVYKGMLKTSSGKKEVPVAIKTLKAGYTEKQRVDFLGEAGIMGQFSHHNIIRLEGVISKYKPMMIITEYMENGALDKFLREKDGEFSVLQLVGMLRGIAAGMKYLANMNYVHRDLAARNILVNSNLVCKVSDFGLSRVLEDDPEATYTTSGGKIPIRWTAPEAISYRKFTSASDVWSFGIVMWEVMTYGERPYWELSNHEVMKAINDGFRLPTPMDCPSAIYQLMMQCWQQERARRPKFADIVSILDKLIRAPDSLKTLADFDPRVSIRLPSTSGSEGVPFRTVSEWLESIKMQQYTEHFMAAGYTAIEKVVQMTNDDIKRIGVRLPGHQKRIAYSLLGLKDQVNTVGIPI

CCN1CCN(Cc2ccc(NC(=O)c3cc(Cl)cc(NC(=O)c4cncc(-c5cccs5)c4)c3)cc2C(F)(F)F)CC1 [TL5-135]
IC50 [1]: > 10000 nM
EC50 [2]: 108 ± 35 nM
Effect on established P. berghei infection [3]: eliminates established P. berghei ANKA infection; also recorded: eliminate established Plasmodium. berghei infections in mice
Condition of mice after prophylactic treatment ([4]; single dose 15 mg/kg 6 hours before infection, after 22 days): still healthy and alive
Prophylactic activity ([4]; single dose 50 mg/kg IV 6 hours prior to infection with 100,000 Pb-Luc sporozoites): has prophylactic activity; also recorded: prevent infection
Parasitemia 12 days post-infection ([5]; 12 days post-infection): about 2.4%
Parasitemia on day 21 ([5]; 21 days post-infection): 35%
Stage specific action, treated at early ring stage [6]: blocks ring to trophozoite maturation
Stage specific action, treated at early ring stage ([6]; listed as TL-135): block ring to trophozoite maturation
Stage specific action, added at trophozoite and schizont stages ([6]; data not shown): blocks maturation of asexual parasites

Source: patent publication US20250195508A1, “COMPOUNDS AND COMPOSITIONS FOR ANITMALARIAL THERAPEUTIC AND PROPHYLACTIC USE” (UNIVERSITY OF CENTRAL FLORIDA RESEARCH FOUNDATION, INC., priority 2022, published 2025)
